Values joined by “and” are separate entries in the source; they are usually repeats but may differ in a detail not shown here. Identical values can stand only once.
Assays:
HepG2 or CEM cells = experiment: Cell viability (MTT) and PARP cleavage; type: cell-based, human; details: 6 h, PARP (Figure 6C)
Procedure: (§1) HepG2 cells (human hepatocellular carcinoma) were cultured in Dulbecco's modified Eagle's medium (DMEM; Sigma) supplemented with 10% fetal calf serum, 2 mM L-glutamine, 100 unit/ml penicillin and 100 µg/ml streptomycin; CEM cells (human T lymphoblastoid cells) were cultured n RPMI-1640 (Sigma) with the same supplements. Cells were cultured in an atmosphere containing 5% CO2, at 37°C. Treatments with TBID were performed in the same medium but with 1% fetal calf serum; control cells were treated with the solvent (DMSO). Total cell lysates were prepared as in [29].
Cell viability was evaluated by means of MTT (3-(4,5-dimethylthiazol-2-yl)-[…] bromide) reagent; 10^5 cells/100 µl were incubated in a 96-well plate and treated for 6 h as indicated. 1 h before the end of the incubation, 10 µl of MTT solution (5 mg/ml in PBS) was added to each well. Incubations were stopped by addition of 20 µl of lysis solution at pH 4.7, as described elsewhere. Plates were read for OD at λ 590 nm, in a Titertek Multiskan Plus plate reader (Flow Laboratories). Apoptosis was evaluated looking for the cleavage of the caspase substrate PARP with anti-PARP antibody (Roche), recognizing both the full length (116 kDa) and the cleaved fragment (85 kDa) of PARP.

endogenous HIPK2 = target: T1, endogenous HIPK2 (Homo sapiens, UniProt Q9H2X6); experiment: Activity of HIPK2 immunoprecipitated from treated HepG2 cells; type: cell-based
T1 construct: endogenous in cells; host or cells: HepG2
T1 sequence (Q9H2X6 whole entry): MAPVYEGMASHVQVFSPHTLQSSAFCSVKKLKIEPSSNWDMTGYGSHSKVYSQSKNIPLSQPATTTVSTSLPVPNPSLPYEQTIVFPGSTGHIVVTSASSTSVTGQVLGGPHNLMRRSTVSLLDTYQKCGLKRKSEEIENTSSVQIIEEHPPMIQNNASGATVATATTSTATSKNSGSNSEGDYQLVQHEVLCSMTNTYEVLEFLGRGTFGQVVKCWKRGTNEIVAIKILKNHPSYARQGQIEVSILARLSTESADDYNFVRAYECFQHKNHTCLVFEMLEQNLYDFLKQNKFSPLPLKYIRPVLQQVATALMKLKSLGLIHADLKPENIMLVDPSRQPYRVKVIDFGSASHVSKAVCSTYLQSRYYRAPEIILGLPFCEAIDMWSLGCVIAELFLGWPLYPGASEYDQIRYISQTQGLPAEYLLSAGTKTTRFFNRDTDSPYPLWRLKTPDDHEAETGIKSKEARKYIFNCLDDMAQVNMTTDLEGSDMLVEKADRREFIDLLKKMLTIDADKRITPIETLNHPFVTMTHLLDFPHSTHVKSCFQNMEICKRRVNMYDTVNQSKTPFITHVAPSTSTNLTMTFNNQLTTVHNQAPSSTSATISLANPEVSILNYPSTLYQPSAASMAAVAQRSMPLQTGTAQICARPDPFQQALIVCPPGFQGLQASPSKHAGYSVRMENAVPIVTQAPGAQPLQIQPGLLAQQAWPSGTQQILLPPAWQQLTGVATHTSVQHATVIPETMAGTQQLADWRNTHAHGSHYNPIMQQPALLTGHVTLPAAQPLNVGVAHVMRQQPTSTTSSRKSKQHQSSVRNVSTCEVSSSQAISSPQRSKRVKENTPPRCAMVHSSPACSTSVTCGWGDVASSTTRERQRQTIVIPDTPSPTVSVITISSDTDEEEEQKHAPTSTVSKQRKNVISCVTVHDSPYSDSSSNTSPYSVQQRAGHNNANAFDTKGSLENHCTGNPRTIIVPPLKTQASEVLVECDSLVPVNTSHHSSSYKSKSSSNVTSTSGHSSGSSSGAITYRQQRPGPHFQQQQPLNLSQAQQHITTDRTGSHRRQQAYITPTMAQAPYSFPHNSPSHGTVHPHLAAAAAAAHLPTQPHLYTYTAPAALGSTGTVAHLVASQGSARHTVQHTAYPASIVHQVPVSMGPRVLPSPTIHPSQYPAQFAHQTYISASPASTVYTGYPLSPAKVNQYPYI
Procedure: as §1
Alternatively, HIPK2 was immunoprecipitated with 2.5 µl anti-HIPK2 (Epitomics) from 350 µg of total lysate proteins deriving from HepG2 cells either treated or not with TBID following a protocol elsewhere described. An aspecific antibody was used as negative control. Immunoprecipitated HIPK2 activity was measured towards the specific peptide substrate ([…]) at 1.6 mM concentration, for 10 min at 30°C, under the same conditions described above for the in vitro kinase assay. Peptide radioactivity was measured after sample spotting on phospho-cellulose paper, washing and scintillation counting, as in [30], while the amount of HIPK2 immunoprecipitated was evaluated by WB.

CAMKKb = CAMKKb (Homo sapiens, UniProt Q96RR4); experiment: Kinase panel selectivity profiling; type: biochemical
Chain of CAMKKb (Q96RR4 whole entry): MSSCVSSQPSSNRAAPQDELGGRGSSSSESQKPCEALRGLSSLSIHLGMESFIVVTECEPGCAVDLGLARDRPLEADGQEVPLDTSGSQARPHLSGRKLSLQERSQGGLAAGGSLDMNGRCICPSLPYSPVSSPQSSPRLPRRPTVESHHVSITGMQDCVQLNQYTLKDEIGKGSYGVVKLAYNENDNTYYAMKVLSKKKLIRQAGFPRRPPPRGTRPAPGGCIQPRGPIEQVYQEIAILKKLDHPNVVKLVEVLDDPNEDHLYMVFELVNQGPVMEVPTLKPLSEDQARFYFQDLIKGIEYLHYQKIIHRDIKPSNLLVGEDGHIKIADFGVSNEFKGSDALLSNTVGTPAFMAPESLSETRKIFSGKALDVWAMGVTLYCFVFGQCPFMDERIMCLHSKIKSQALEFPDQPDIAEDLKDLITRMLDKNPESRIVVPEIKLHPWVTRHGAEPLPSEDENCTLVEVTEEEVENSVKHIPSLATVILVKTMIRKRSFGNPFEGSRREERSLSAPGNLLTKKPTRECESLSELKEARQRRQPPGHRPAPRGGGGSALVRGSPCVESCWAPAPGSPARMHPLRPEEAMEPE
From the text: (§2) The source of HIPK2 and of all of the other protein kinases used for specificity assays is as described elsewhere.
(§3) Conditions for the activity assays of all other protein kinases tested in selectivity experiments are as described or referenced in [9].

MELK = MELK (Homo sapiens, UniProt Q14680); experiment: Kinase panel selectivity profiling; type: biochemical; details: TBID 1 μM, 125 kinase panel, read-out: % activity of the enzyme
From the text: as §2, §3

EPH-B2 = EPH-B2 (Homo sapiens, UniProt P29323); experiment: Kinase panel selectivity profiling; type: biochemical; details: TBID 1 μM, 125 kinase panel, read-out: % activity of the enzyme
From the text: as §2, §3

EPH-B1 = EPH-B1 (Homo sapiens, UniProt P54762); experiment: Kinase panel selectivity profiling; type: biochemical; details: TBID 1 μM, 125 kinase panel, read-out: % activity of the enzyme
From the text: as §2, §3

PKCa = PKCa (Homo sapiens, UniProt P17252); experiment: Kinase panel selectivity profiling; type: biochemical; details: TBID 1 μM, 125 kinase panel, read-out: % activity of the enzyme
From the text: as §2, §3

NEK2a = NEK2a (Homo sapiens, UniProt P51955); experiment: Kinase panel selectivity profiling; type: biochemical; details: TBID 1 μM, 125 kinase panel, read-out: % activity of the enzyme
From the text: as §2, §3

TBK1 = TBK1 (Homo sapiens, UniProt Q9UHD2); experiment: Kinase panel selectivity profiling; type: biochemical; details: TBID 1 μM, 125 kinase panel, read-out: % activity of the enzyme
From the text: as §2, §3

Src = Src (Homo sapiens, UniProt P12931); experiment: Kinase panel selectivity profiling; type: biochemical; details: TBID 1 μM, 125 kinase panel, read-out: % activity of the enzyme
From the text: as §2, §3

ERK2 = ERK2 (Homo sapiens, UniProt P28482); experiment: Kinase panel selectivity profiling; type: biochemical; details: TBID 1 μM, 125 kinase panel, read-out: % activity of the enzyme
Chain of ERK2 (P28482 whole entry): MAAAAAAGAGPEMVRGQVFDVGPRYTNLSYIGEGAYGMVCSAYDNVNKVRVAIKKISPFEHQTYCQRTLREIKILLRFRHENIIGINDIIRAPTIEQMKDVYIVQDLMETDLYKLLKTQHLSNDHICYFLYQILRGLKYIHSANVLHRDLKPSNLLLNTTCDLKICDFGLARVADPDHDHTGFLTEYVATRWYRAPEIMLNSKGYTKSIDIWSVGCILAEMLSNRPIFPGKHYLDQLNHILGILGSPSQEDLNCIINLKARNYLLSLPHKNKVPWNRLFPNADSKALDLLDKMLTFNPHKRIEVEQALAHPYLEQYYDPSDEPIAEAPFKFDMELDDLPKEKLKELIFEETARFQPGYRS
From the text: as §2, §3

HER4 = HER4 (Homo sapiens, UniProt Q15303); experiment: Kinase panel selectivity profiling; type: biochemical; details: TBID 1 μM, 125 kinase panel, read-out: % activity of the enzyme
From the text: as §2, §3

BTK = BTK (Homo sapiens, UniProt Q06187); experiment: Kinase panel selectivity profiling; type: biochemical
Chain of BTK (Q06187 whole entry): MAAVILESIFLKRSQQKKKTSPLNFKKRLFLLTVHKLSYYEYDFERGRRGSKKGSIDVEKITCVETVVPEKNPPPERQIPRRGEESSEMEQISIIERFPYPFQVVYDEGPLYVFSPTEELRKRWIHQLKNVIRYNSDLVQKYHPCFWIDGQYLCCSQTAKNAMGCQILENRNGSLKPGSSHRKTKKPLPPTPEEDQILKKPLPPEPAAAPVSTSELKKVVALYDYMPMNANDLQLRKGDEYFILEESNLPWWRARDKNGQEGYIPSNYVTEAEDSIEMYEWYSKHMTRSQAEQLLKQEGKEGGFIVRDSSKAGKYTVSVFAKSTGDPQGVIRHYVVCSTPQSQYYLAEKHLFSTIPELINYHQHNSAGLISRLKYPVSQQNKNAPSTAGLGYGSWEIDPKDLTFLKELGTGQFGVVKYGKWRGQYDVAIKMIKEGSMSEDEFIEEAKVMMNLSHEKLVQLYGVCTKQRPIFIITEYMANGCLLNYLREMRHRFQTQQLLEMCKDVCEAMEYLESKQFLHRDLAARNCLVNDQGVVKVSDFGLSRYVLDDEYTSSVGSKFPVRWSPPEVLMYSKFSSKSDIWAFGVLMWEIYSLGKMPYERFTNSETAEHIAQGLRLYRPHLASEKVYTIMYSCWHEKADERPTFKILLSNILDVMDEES
From the text: as §2, §3

AMPK = experiment: Kinase panel selectivity profiling; type: biochemical; details: TBID 1 μM, 125 kinase panel
From the text: as §2, §3

IKKb = IKKb (Homo sapiens, UniProt O14920); experiment: Kinase panel selectivity profiling; type: biochemical; details: TBID 1 μM, 125 kinase panel, read-out: % activity of the enzyme
Chain of IKKb (O14920 whole entry): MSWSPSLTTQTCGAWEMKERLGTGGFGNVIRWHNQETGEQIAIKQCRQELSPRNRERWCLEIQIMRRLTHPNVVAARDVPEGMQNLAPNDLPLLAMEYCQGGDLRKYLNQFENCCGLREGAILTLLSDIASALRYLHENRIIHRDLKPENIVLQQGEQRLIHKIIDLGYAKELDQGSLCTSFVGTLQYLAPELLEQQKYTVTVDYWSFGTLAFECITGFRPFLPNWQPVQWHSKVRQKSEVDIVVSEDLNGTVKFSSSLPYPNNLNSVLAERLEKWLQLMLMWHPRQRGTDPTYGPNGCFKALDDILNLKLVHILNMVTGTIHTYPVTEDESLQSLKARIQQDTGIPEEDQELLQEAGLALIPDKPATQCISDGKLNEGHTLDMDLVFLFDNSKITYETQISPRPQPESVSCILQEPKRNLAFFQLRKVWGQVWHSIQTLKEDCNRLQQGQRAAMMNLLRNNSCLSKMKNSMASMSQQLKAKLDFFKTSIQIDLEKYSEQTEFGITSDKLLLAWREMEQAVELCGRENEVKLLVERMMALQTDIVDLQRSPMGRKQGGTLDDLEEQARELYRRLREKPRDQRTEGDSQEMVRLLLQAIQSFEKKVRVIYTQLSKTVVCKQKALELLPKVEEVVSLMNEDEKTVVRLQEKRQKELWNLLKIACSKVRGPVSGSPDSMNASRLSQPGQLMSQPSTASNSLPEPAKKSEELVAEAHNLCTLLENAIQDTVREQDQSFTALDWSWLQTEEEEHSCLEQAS
From the text: as §2, §3

RSK1 = RSK1 (Homo sapiens, UniProt Q15418); experiment: Kinase panel selectivity profiling; type: biochemical; details: TBID 1 μM, 125 kinase panel, read-out: % activity of the enzyme
From the text: as §2, §3

PAK6 = PAK6 (Homo sapiens, UniProt Q9NQU5); experiment: Kinase panel selectivity profiling; type: biochemical; details: TBID 1 μM, 125 kinase panel, read-out: % activity of the enzyme
From the text: as §2, §3

BRK = BRK (Homo sapiens, UniProt Q13882); experiment: Kinase panel selectivity profiling; type: biochemical; details: TBID 1 μM, 125 kinase panel, read-out: % activity of the enzyme
From the text: as §2, §3

ERK1 = ERK1 (Homo sapiens, UniProt P27361); experiment: Kinase panel selectivity profiling; type: biochemical; details: TBID 1 μM, 125 kinase panel, read-out: % activity of the enzyme
Chain of ERK1 (P27361 whole entry): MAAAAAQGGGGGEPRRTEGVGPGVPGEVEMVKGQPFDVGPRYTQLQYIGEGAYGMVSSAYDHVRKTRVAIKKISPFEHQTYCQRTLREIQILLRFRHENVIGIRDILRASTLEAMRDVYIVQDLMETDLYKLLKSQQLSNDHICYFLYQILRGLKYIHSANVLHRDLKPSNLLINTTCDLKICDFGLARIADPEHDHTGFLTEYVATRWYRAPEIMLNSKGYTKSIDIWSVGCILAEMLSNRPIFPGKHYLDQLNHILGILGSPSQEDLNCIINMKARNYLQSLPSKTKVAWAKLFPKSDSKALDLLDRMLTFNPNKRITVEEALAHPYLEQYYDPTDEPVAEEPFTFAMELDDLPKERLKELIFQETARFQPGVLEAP
From the text: as §2, §3

ROCK 2 = ROCK 2 (Homo sapiens, UniProt O75116); experiment: Kinase panel selectivity profiling; type: biochemical; details: TBID 1 μM, 125 kinase panel, read-out: % activity of the enzyme
From the text: as §2, §3

[1] = 10 µM TBID, panel of 76 protein kinases, read-out: residual activity
[2] = TBID 1 μM, 125 kinase panel, read-out: % activity of the enzyme

O=C1c2c(Br)c(Br)c(Br)c(Br)c2C(=O)N1c1ncc[nH]1 [TBID, 4,5,6,7-Tetrabromo-2-(1H-imidazol-2-yl)isoindoline-1,3-dione]
cell toxicity (HepG2 or CEM cells): devoid of cell toxicity
IC50 (endogenous HIPK2; HIPK2 activity in cells treated with TBID, read-out: IC50 in cells (concentration required for half maximal inhibition)): ~50 µM and 50 µM
endogenous HIPK2 activity upon cell treatment (endogenous HIPK2; HepG2 cells, increasing concentrations, immunoprecipitated HIPK2): reduced in a dose dependent manner
remaining activity at 10 µM (CAMKKb; [1]): 34%
activity at 1 µM (CAMKKb; [2]): 75%
activity at 1 µM (MELK): 110%
activity at 1 µM (EPH-B2): 108%
activity at 1 µM (EPH-B1): 96%
activity at 1 µM (PKCa): 102%
activity at 1 µM (NEK2a): 89%
activity at 1 µM (TBK1): 108%
activity at 1 µM (Src): 83%
activity at 1 µM (ERK2): 91%
activity at 1 µM (HER4): 91%
remaining activity at 10 µM (BTK; [1]): 29%
activity at 1 µM (BTK; [2]): 84%
% activity of the enzyme (AMPK): 87%
activity at 1 µM (IKKb): 99%
activity at 1 µM (RSK1): 93%
activity at 1 µM (PAK6): 102%
activity at 1 µM (BRK): 103%
activity at 1 µM (ERK1): 98%
activity at 1 µM (ROCK 2): 117%
